This note sets out measurements from ChEMBL document CHEMBL1132137, “Synthesis and antiviral activity of some N-benzenesulphonylbenzimidazoles” (Bioorg Med Chem Lett, 1999).

Converted amounts (≈) assume the structure as drawn. “And” between values parts separate entries of the source, which are not always exact repeats. Equal entries are not always repeated.

In test [1] the test system is Coxsackievirus B5. Briefly: Inhibitory concentration required to reduce viral plaque formation of Coxsackie B5 virus by 50%. The note with it: Enterovirus B. The class given is functional, organism-based.
The test system of test [2] is Coxsackievirus B5. As to the kind of experiment: Antiviral activity against the Coxsackie B5 virus (RNA virus) at a concentration of 2 ug/mL was determined as total cell infectious dose 50/mL (TCID50) by viral yield assay. The class given is functional.
The test system of test [3] is Human alphaherpesvirus 1. As to the kind of experiment: Antiviral activity against the Herpes simplex 1 virus (DNA virus) at a concentration of 2 ug/mL was determined as Plaque forming unit/mL(PFU) by plaque assay. The test is classed as functional.
For test [4], the system named is Mumps virus. Briefly: Antiviral activity against the Mumps virus (RNA virus) at a concentration of 2 ug/mL was determined as total cell infectious dose 50/mL (TCID50) by viral yield assay. The test is classed as functional, Mumps orthorubulavirus.
Test [5] deals with Vero. Briefly: (§1) Cytotoxicity on the vero cell culture infected with mL and was determined as reduction in protein content by the Lowry test. The test is classed as functional, Chlorocebus sabaeus.
Test [6] deals with Vero. Briefly: Cytotoxicity on the vero cell culture infected with Coxsackie B5 virus at a concentration of 1 ug/mL was determined as cell viability by the MTT test. The class given is functional, Chlorocebus sabaeus. (Formazan colour is commonly taken as a measure of viable cells.)
For test [7], the system named is Vero. Briefly: Cytotoxicity on the vero cell culture infected with Coxsackie B5 virus at a concentration of 2 ug/mL was determined as cell viability by the MTT test. The test is classed as functional, Chlorocebus sabaeus.
The subject of test [8] is Vero. The test is described as §1. The class given is functional, Chlorocebus sabaeus. This is another data set of the same source.
The subject of test [9] is Vaccinia virus. As to the kind of experiment: Antiviral activity against the Vaccinia virus (DNA virus) at a concentration of 2 ug/mL was determined as Plaque forming unit/mL(PFU) by plaque assay. The test is classed as functional, Orthopoxvirus vaccinia.
The test system of test [10] is Coxsackievirus B5. As to the kind of experiment: Antiviral activity against the Coxsackie B5 virus (RNA virus) at a concentration of 3 ug/mL was determined as total cell infectious dose 50/mL (TCID50) by viral yield assay. The test is classed as functional.
In test [11] the test system is Vero. The test is described as §1. The class given is functional, Chlorocebus sabaeus. Details: unit not given here.
For test [12], the system named is Vero. The description is as §1. The test is classed as functional, Chlorocebus sabaeus. Also noted: unit not given here. The source holds these as a separate data set.
The subject of test [13] is Vero. Briefly: Cytotoxicity on the vero cell culture infected with Coxsackie B5 virus at a concentration of 3 ug/mL was determined as cell viability by the MTT test. The test is classed as functional, Chlorocebus sabaeus.
The test system of test [14] is Vero. As to the kind of experiment: Cytotoxicity on the vero cell culture infected with Coxsackie B5 virus at a concentration of 5 ug/mL was determined as cell viability by the MTT test. The test is classed as functional, Chlorocebus sabaeus.
The subject of test [15] is Coxsackievirus B5. Briefly: Antiviral activity against the Coxsackie B5 virus (RNA virus) at a concentration of 4 ug/mL was determined as total cell infectious dose 50/mL (TCID50) by viral yield assay. The class given is functional.
The subject of test [16] is Vero. The description is as §1. The test is classed as functional, Chlorocebus sabaeus. The source holds these as a separate data set.
Test [17] deals with Vero. Briefly: Cytotoxicity on the vero cell culture infected with Coxsackie B5 virus at a concentration of 4 ug/mL was determined as cell viability by the MTT test. The test is classed as functional, Chlorocebus sabaeus.
Test [18] concerns Coxsackievirus B5. Briefly: Antiviral activity against the Coxsackie B5 virus (RNA virus) at a concentration of 5 ug/mL was determined as total cell infectious dose 50/mL (TCID50) by viral yield assay. The class given is functional.
The subject of test [19] is Human alphaherpesvirus 1. Briefly: Antiviral activity against the Herpes simplex 1 virus (DNA virus) at a concentration of 5 ug/mL was determined as Plaque forming unit/mL(PFU) by plaque assay. The test is classed as functional.
Test [20] concerns Mumps virus. Briefly: Antiviral activity against the Mumps virus (RNA virus) at a concentration of 5 ug/mL was determined as total cell infectious dose 50/mL (TCID50) by viral yield assay. The class given is functional, Mumps orthorubulavirus.
The subject of test [21] is Vero. Briefly: Cytotoxicity on the vero cell culture infected with Coxsackie B5 virus at a concentration of 10 ug/mL was determined as cell viability by the MTT test. The class given is functional, Chlorocebus sabaeus.
Test [22] has as its system Vaccinia virus. As to the kind of experiment: Antiviral activity against the Vaccinia virus (DNA virus) at a concentration of 5 ug/mL was determined as Plaque forming unit/mL(PFU) by plaque assay. The test is classed as functional, Orthopoxvirus vaccinia.
Test [23] concerns Coxsackievirus B5. Briefly: Antiviral activity against the Coxsackie B5 virus (RNA virus) at a concentration of 80 ug/mL was determined as total cell infectious dose 50/mL (TCID50) by viral yield assay. The test is classed as functional.
The subject of test [24] is Vero. Briefly: Cytotoxicity on the vero cell culture infected with Coxsackie B5 virus at a concentration of 80 ug/mL was determined as cell viability by the MTT test. The test is classed as functional, Chlorocebus sabaeus.

One may read the IC50 as the concentration that inhibits the measured activity by half. For `O=[N+]([O-])c1ccccc1S(=O)(=O)n1c(CCc2ccccn2)nc2cc(Cl)c(Cl)cc21`, in test [1], the IC50 is 8 µg/mL (≈ 16.8 µM). Also, the TCID50 in test [2] was found to be 1000000 mL⁻¹; in [4], 100000 mL⁻¹. The Activity in test [3] is on record as 4700000 pfu/ml; in [9], 120 pfu/ml. Moreover, the Cytotoxicity in test [5] is given as 784.8; in test [8], 840.5. Moreover, the Cell viability was 1.49 in test [6] and 1.36 in [7].
Regarding `O=[N+]([O-])c1ccc(S(=O)(=O)n2c(Sc3ncccc3[N+](=O)[O-])nc3ccccc32)cc1`, the TCID50 in [10] is 10000000 mL⁻¹. Further, the Cytotoxicity in test [11] was determined as 678.6; in test [12] it was 508.9. In addition, the Cell viability in test [13] is recorded as 1.36; in test [14], 0.8.
Regarding `O=[N+]([O-])c1ccc(S(=O)(=O)n2c(SCc3ccccn3)nc3ccccc32)cc1`, the TCID50 in [15] is 1000000 mL⁻¹. In addition, the Cytotoxicity in test [5] was determined as 744.3; in [16] it was 734.2. The Cell viability came to 1.44 in test [7] and 1.12 in [17].
`O=[N+]([O-])c1ccc(S(=O)(=O)n2c(Sc3ncccc3[N+](=O)[O-])nc3cc(Cl)c(Cl)cc32)cc1` returned a TCID50 in test [10] of 1000000 mL⁻¹. In addition, the values for the Cytotoxicity in test [11] and in test [12] were 595.6 and 456.1, respectively. The Cell viability in test [13] worked out at 1.27; in [14], 0.79.
For `O=[N+]([O-])c1ccccc1S(=O)(=O)n1c(CCc2ccccn2)nc2ccccc21`, the TCID50 came out at 100000 mL⁻¹ in test [18] and 10000 mL⁻¹ in test [20]. Besides, it took 5 µg/mL (≈ 12.2 µM) to reach half-maximal inhibition in test [1] (IC50). Further, the figures for the Activity in test [19] and in test [22] were 1800000 pfu/ml and 750 pfu/ml, respectively. Further, the results for the Cytotoxicity in [5] and in test [12] were 627.8 and 759.5, respectively. The Cell viability in [21] was 0.82 and 1.23.
Regarding `O=[N+]([O-])c1ccc(S(=O)(=O)n2c(SCc3ccccn3)nc3cc(Cl)c(Cl)cc32)cc1`, in test [10], the TCID50 was found to be 1000000 mL⁻¹. In addition, the Cytotoxicity in test [11] is given as 663.4; in test [12], 540.8. Besides, the Cell viability in [13] is given as 1.23; in [14], 0.89.
For `O=[N+]([O-])c1ccccc1S(=O)(=O)n1c(SCc2ccccn2)nc2ccccc21`, the TCID50 in test [2] is 10000000 mL⁻¹. In addition, the values for the Cytotoxicity in test [5] and in test [8] were 724.1 and 774.7, respectively. In addition, the Cell viability in [6] came out at 1.42; in [7] it was 1.02.
In test [10], `O=[N+]([O-])c1ccccc1S(=O)(=O)n1c(SCc2ccccn2)nc2cc(Cl)c(Cl)cc21` gave a TCID50 of 10000000 mL⁻¹. Also, the figures for the Cytotoxicity in test [11] and in test [12] were 740.1 and 495.8, respectively. Also, the Cell viability in test [13] came to 1.12; in test [14], 0.83.
For the compound `N=C(N)N` [GUANIDINE], the results for the TCID50 in [23] and in test [10] were 10000 mL⁻¹ and 1000000 mL⁻¹, respectively. Also, the Cytotoxicity in [5] came to 825.7; in test [11] it was 839.4. For the same compound, the results for the Cell viability in test [13] and in test [24] were 1.45 and 1.41, respectively.
